Measurements taken from PMC11408249, “Non-invasive in vivo imaging of changes in Collagen III turnover in myocardial fibrosis” (npj Imaging, 2024).
Residues, ends and D or L forms follow the SMILES beside them. No end group written: not given here. *: point of attachment. DOTA = O=C(O)CN1CCN(CC(=O)O)CCN(CC(=O)*)CCN(CC(=O)O)CC1

Assays:
COL3 remodelling = test: Enalapril treatment after myocardial infarction, read out by COL3 molecular CMR and cine MRI; type: in vivo, mice
COL3 [1] = biological target: T1, COL3 (Mus musculus, UniProt P08121); test: In vivo MRI of the aortic wall in a murine model of vascular remodelling; settings: ApoE−/− mice after aortic injury and 12 weeks high-fat diet, i.v. 0.2 mmol/kg, LGE MRI at 3 T up to 2 h post-injection
T1 construct: from tissue; host or cells: infarcted left-ventricular myocardium of female CD1 mice, in vivo
T1 sequence (P08121 155-1219 limits assumed): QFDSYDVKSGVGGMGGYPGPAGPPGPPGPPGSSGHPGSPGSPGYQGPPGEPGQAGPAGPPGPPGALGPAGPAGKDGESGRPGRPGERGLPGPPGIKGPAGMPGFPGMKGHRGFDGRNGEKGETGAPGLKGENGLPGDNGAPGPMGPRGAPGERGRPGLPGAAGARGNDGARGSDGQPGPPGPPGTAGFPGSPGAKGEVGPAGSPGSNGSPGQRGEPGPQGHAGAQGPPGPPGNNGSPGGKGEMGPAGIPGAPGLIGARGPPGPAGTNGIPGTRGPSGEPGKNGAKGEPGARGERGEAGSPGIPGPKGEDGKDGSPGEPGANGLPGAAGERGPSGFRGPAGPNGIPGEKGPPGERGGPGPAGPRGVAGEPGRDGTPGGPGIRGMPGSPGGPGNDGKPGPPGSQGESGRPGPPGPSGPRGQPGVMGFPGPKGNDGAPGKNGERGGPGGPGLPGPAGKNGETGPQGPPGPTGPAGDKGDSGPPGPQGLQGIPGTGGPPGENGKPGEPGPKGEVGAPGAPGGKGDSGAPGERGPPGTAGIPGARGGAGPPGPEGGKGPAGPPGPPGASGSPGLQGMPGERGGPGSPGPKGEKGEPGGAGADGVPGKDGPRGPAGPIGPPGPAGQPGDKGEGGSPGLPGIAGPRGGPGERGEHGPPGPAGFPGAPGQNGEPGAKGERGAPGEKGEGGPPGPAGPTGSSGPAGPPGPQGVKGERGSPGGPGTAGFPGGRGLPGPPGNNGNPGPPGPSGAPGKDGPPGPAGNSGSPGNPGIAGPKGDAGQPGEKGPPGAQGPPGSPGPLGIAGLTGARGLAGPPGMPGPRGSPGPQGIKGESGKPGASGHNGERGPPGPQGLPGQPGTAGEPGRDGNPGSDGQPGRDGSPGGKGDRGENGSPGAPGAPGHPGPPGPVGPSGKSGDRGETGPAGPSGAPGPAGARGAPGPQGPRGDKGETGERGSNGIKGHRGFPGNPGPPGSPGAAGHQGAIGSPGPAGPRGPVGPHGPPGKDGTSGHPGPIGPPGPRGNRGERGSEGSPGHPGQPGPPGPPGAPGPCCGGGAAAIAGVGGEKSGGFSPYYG
Source text: Male ApoE^−/− mice were bred in-house and underwent surgery at 8–10 weeks of age (n = 6). Mice were anesthetised with 4% isoflurane mixed with 1% medical oxygen and anaesthesia was maintained at 2% during the surgery as previously reported. Briefly, mice underwent a laparotomy to expose the abdominal aorta, renal and iliac arteries. Two ligatures were inserted around the aorta (surgical silk, size 4–0, Aragó, Zaragoza, Spain), the first below the renal arteries and the second above the iliac bifurcation. A 30 G needle was introduced into the abdominal aorta at the level of the iliac bifurcation, via an aortic puncture. 1 mL of saline was infused into the aorta in three boluses. Finally, the needle was removed, and the puncture was repaired. The muscle and skin incisions were sutured (5-0 Vicryl, Ethicon Inc, Somerville, NJ), and the animals were allowed to recover. Mice were switched to a high-fat diet (HFD) containing 21% fat from lard and 0.15% (wt/wt) cholesterol (Special Diets Services, Witham, United Kingdom), on day 2 post-surgery for 12 weeks prior to the imaging experiments.
Anaesthesia was induced with 4% and maintained with 1–2% isoflurane during the MRI experiments. Mice (n = 3 per group) were placed supine on a single-loop surface coil (diameter = 47 mm) and the abdominal aorta was imaged up to 2 h post-injection of the monomeric (i.v. 0.2 mmol/kg, 0.2 mmol/kg Gd), the next day with the corresponding tetrameric collagen-binding probe (i.v 0.2 mmol/kg, 0.8 mmol/kg Gd) and the 3rd day using the scrambled probes (n = 2–3 per probe; i.v. 0.2 mmol/kg). This timeline ensures complete washout of one probe from the tissue before the administration of another probe. […]

COL3 [2] = biological target: T2, COL3 (Homo sapiens, UniProt P02461); test: Eu(III) time resolved fluorescence (TRF) plate binding assay on immobilised COL3; settings: immobilised COL3, probe up to 15 µM
T2 sequence (P02461 154-1221 limits assumed): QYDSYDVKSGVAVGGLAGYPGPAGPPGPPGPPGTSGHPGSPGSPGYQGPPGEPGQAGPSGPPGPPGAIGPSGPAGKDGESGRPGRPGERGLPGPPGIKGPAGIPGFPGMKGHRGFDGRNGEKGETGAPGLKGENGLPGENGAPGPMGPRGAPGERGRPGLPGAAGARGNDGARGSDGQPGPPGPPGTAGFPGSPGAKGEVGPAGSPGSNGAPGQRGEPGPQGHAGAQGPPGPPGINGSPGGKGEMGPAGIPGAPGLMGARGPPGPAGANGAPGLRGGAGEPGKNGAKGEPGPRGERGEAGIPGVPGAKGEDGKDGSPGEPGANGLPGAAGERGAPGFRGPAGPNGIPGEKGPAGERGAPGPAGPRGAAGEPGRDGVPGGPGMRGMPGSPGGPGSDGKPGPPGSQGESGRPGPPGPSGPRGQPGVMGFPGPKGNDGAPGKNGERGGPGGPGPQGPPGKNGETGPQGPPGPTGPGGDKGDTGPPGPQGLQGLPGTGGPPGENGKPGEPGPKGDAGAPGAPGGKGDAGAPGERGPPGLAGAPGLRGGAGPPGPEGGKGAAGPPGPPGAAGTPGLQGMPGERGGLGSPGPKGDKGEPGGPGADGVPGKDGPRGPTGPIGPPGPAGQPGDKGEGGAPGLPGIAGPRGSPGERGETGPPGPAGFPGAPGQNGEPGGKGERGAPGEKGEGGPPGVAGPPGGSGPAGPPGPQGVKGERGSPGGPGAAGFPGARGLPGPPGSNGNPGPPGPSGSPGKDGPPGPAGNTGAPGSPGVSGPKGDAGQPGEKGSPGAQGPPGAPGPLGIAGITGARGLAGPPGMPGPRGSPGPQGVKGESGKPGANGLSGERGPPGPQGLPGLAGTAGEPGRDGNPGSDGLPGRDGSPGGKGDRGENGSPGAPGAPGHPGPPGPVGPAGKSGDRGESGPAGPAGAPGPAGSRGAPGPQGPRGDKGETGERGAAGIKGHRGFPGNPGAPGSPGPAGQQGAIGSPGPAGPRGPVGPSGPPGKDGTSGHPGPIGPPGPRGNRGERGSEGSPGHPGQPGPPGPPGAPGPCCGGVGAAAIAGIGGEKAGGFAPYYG
Protocol: The protocol to assess the binding affinity of the Eu(III)-labelled collagen probes to COL3 has been optimised previously. Such an assay is based on the Eu(III) TRF which detects the amount of Eu(III)-labelled probes that bind to COL3 immobilised on a multi-well plate. The assay was used to measure the COL3 binding affinity of the monomeric Eu(III)-labelled probes (expressed as the dissociation constant, Kd). The same assay was carried out with COL1, to estimate the selectivity for COL3 binding in respect to COL1. Potential unspecific binding effects associated with the assay were investigated by using two types of control experiments: (i) the scrambled versions of the Eu(III)-labelled probes were used as negative controls in TRF plate assays with immobilised collagen (either COL3 or COL1); and (ii) the collagen specific probes were assayed against elastin and bovine serum albumin (BSA) as control non-binding proteins. Briefly, increasing concentrations of the peptide (0.1–15 µM; 70 µL per well) were incubated in 96-well microplates pre-coated with the desired protein. Triplicate readings were taken per concentration and three independent experiments (plates) were used. After incubation of the peptide with the protein for one hour, the plates were washed with PBS to remove any free (unbound) peptide. […] The plates were then read using a luminescence plate reader. […]

Collagen type III (COL3) [3] = biological target: T3, Collagen type III (COL3) (Homo sapiens, UniProt P02461); test: Eu(III) time-resolved fluorescence plate assay
T3 chain: T2 sequence (P02461 154-1221 limits assumed)

Collagen type III (COL3) [4] = biological target: T3, Collagen type III (COL3); test: competition Eu(III) time-resolved fluorescence assay

CCOC(=O)[C@H](CCc1ccccc1)N[C@@H](C)C(=O)N1CCC[C@H]1C(=O)O [enalapril]
volume of signal enhancement (LGE volume) at day 21 versus untreated mice (in words) (COL3 remodelling; enalapril 20 mg/kg/day in drinking water after MI, imaged with [Gd-DOTAMA]4-CBP1, n = 7 per group): significantly higher volume of signal enhancement
cardiac geometry and function versus untreated mice (in words) (COL3 remodelling; enalapril 20 mg/kg/day in drinking water, cine MRI, days 10 and 21 post-MI): no significant differences

Ac-C-EWFMKDRLLNRPT [[Gd-DOTAMA]4-SccCBP2, scrambled tetrameric Gd probe (Ac-C-…), negative control]
signal enhancement of the remodelled aortic wall (in words) (COL3 [1]): also showed signal enhancement

CC(C)[C@H](NC(=O)[C@H](CCC(=O)O)NC(=O)[C@H](CO)NC(=O)[C@H](CCCCN)NC(=O)[C@H](CCCNC(=N)N)NC(=O)[C@H](C)NC(=O)[C@H](CC(=O)O)NC(=O)CN1CCN(CC(=O)O)CCN(CC(=O)O)CCN(CC(=O)O)CC1)C(=O)N[C@@H](CCC(N)=O)C(=O)N[C@@H](CCCCN)C(=O)O [Eu-DOTAMA-CBP1] ({DOTA}-DARKSEVQK-OH)
fractional occupancy (FO) at the highest concentration of probe (COL3 [2]): 74%

TEFPLRMRDWLKN (not fully specified (N-terminus); also: Eu complexed by N-terminal DOTAMA) [Eu-DOTAMA-CBP2]
Kd (Collagen type III (COL3) [3]): 4.8 µM

DARKSEVQK (not fully specified (N-terminus); also: Eu complexed by N-terminal DOTAMA) [Eu-DOTAMA-CBP1]
Kd (Collagen type III (COL3) [3]): 5.3 µM

Ac-C((Gd-DOTAMA)4 tri‑lysine scaffold)DARKSEVQK (not fully specified) [[Gd-DOTAMA]4-CBP1]
IC50 (Collagen type III (COL3) [4]): 200 µM
